From PubChem BioAssay AID1259407 (Chemical Carcinogenesis Research Information System (CCRIS), 2018) come the findings set out here.

This series deals with CCRIS mutagenicity, Ames/micronucleus/aberration tests. The series is described as follows: CCRIS mutagenicity studies.

Calls of active or inactive are those of the source. No rule for the calls is given here.

In the case of `O=[N+]([O-])c1ccc(O)c([N+](=O)[O-])c1`, the mutagenic call (End Point: IN VITRO CHROMOSOMAL ABERRATIONS, Test System: CHO CELLS, Metabolic Activation: NONE) is “active; positive”; the mutagenic call (End Point: IN VITRO CHROMOSOMAL ABERRATIONS, Test System: HUMAN PERIPHERAL LYMPHOCYTES, Metabolic Activation: NONE) was “active; positive”; the mutagenic call (End Point: IN VITRO CHROMOSOMAL ABERRATIONS, Test System: TK6 HUMAN LYMPHOBLASTS, Metabolic Activation: NONE) is “inactive; negative”; the mutagenic call (End Point: In vitro micronucleus, Test System: Mouse lymphoma L5178Y cells, Metabolic Activation: None) is “active; positive”; the mutagenic call (Test System: AMES SALMONELLA TYPHIMURIUM, Strain/Indicator: TA97, Metabolic Activation: HAMSTER, LIVER, S-9, AROCLOR 1254 (10%), Method: PREINCUBATION) is “inactive; negative”; the mutagenic call (Test System: AMES SALMONELLA TYPHIMURIUM, Strain/Indicator: TA97, Metabolic Activation: HAMSTER, LIVER, S-9, AROCLOR 1254 (30%), Method: PREINCUBATION) was “inactive; negative”. In addition, the mutagenic call was “inactive; negative” (Test System: AMES SALMONELLA TYPHIMURIUM, Strain/Indicator: TA97, Metabolic Activation: NONE, Method: PREINCUBATION); “inactive; negative” (Test System: AMES SALMONELLA TYPHIMURIUM, Strain/Indicator: TA97, Metabolic Activation: RAT, LIVER, S-9, AROCLOR 1254 (10%), Method: PREINCUBATION); “inactive; negative” (Test System: AMES SALMONELLA TYPHIMURIUM, Strain/Indicator: TA97, Metabolic Activation: RAT, LIVER, S-9, AROCLOR 1254 (30%), Method: PREINCUBATION); “inactive; negative” (Test System: AMES SALMONELLA TYPHIMURIUM, Strain/Indicator: TA98, Metabolic Activation: HAMSTER, LIVER, S-9, AROCLOR 1254 (10%), Method: PREINCUBATION); “inactive; negative” (Test System: AMES SALMONELLA TYPHIMURIUM, Strain/Indicator: TA98, Metabolic Activation: HAMSTER, LIVER, S-9, AROCLOR 1254 (30%), Method: PREINCUBATION); “inactive; negative” (Test System: AMES SALMONELLA TYPHIMURIUM, Strain/Indicator: TA98, Metabolic Activation: NONE, Method: PREINCUBATION). In addition, the mutagenic call was “inactive; negative” (Test System: AMES SALMONELLA TYPHIMURIUM, Strain/Indicator: TA98, Metabolic Activation: RAT, LIVER, S-9, AROCLOR 1254 (10%), Method: PREINCUBATION); “inactive; negative” (Test System: AMES SALMONELLA TYPHIMURIUM, Strain/Indicator: TA98, Metabolic Activation: RAT, LIVER, S-9, AROCLOR 1254 (30%), Method: PREINCUBATION); “inactive; negative” (Test System: AMES SALMONELLA TYPHIMURIUM, Strain/Indicator: TA98, Metabolic Activation: RAT, LIVER, S-9, KANECHLOR 500, Method: PREINCUBATION); “inactive; negative” (Test System: AMES SALMONELLA TYPHIMURIUM, Strain/Indicator: TA98, Metabolic Activation: RAT, LIVER, S-9, PHENOBARBITAL AND BETA-NAPHTHOFLAVONE, Method: PREINCUBATION); “inactive; negative” (Test System: AMES SALMONELLA TYPHIMURIUM, Strain/Indicator: TA100, Metabolic Activation: HAMSTER, LIVER, S-9, AROCLOR 1254 (10%), Method: PREINCUBATION); “inactive; negative” (Test System: AMES SALMONELLA TYPHIMURIUM, Strain/Indicator: TA100, Metabolic Activation: HAMSTER, LIVER, S-9, AROCLOR 1254 (30%), Method: PREINCUBATION). In addition, the mutagenic call is “inactive; negative” (Test System: AMES SALMONELLA TYPHIMURIUM, Strain/Indicator: TA100, Metabolic Activation: NONE, Method: PREINCUBATION); “inactive; negative” (Test System: AMES SALMONELLA TYPHIMURIUM, Strain/Indicator: TA100, Metabolic Activation: RAT, LIVER, S-9, AROCLOR 1254 (10%), Method: PREINCUBATION); “inactive; negative” (Test System: AMES SALMONELLA TYPHIMURIUM, Strain/Indicator: TA100, Metabolic Activation: RAT, LIVER, S-9, AROCLOR 1254 (30%), Method: PREINCUBATION); “inactive; negative” (Test System: AMES SALMONELLA TYPHIMURIUM, Strain/Indicator: TA100, Metabolic Activation: RAT, LIVER, S-9, KANECHLOR 500, Method: PREINCUBATION); “inactive; negative” (Test System: AMES SALMONELLA TYPHIMURIUM, Strain/Indicator: TA100, Metabolic Activation: RAT, LIVER, S-9, PHENOBARBITAL AND BETA-NAPHTHOFLAVONE, Method: PREINCUBATION); “inactive; negative” (Test System: AMES SALMONELLA TYPHIMURIUM, Strain/Indicator: TA102, Metabolic Activation: NONE, Method: PREINCUBATION). Besides, the mutagenic call was “inactive; negative” (Test System: AMES SALMONELLA TYPHIMURIUM, Strain/Indicator: TA102, Metabolic Activation: RAT, LIVER, S-9, PHENOBARBITAL AND BETA-NAPHTHOFLAVONE, Method: PREINCUBATION); “inactive; negative” (Test System: AMES SALMONELLA TYPHIMURIUM, Strain/Indicator: TA104, Metabolic Activation: NONE, Method: PREINCUBATION); “inactive; negative” (Test System: AMES SALMONELLA TYPHIMURIUM, Strain/Indicator: TA104, Metabolic Activation: RAT, LIVER, S-9, PHENOBARBITAL AND BETA-NAPHTHOFLAVONE, Method: PREINCUBATION); “inactive; negative” (Test System: AMES SALMONELLA TYPHIMURIUM, Strain/Indicator: TA1535, Metabolic Activation: HAMSTER, LIVER, S-9, AROCLOR 1254 (10%), Method: PREINCUBATION); “inactive; negative” (Test System: AMES SALMONELLA TYPHIMURIUM, Strain/Indicator: TA1535, Metabolic Activation: HAMSTER, LIVER, S-9, AROCLOR 1254 (30%), Method: PREINCUBATION); “inactive; negative” (Test System: AMES SALMONELLA TYPHIMURIUM, Strain/Indicator: TA1535, Metabolic Activation: RAT, LIVER, S-9, AROCLOR 1254 (10%), Method: PREINCUBATION). The mutagenic call was “inactive; negative” (Test System: AMES SALMONELLA TYPHIMURIUM, Strain/Indicator: TA1535, Metabolic Activation: RAT, LIVER, S-9, AROCLOR 1254 (30%), Method: PREINCUBATION); “inactive; negative” (Test System: AMES SALMONELLA TYPHIMURIUM, Strain/Indicator: TA1535, Metabolic Activation: RAT, LIVER, S-9, PHENOBARBITAL AND BETA-NAPHTHOFLAVONE, Method: PREINCUBATION); “inactive; negative” (Test System: AMES SALMONELLA TYPHIMURIUM, Strain/Indicator: TA1537, Metabolic Activation: HAMSTER, LIVER, S-9, AROCLOR 1254 (30%), Method: PREINCUBATION); “inactive; negative” (Test System: AMES SALMONELLA TYPHIMURIUM, Strain/Indicator: TA1537, Metabolic Activation: NONE, Method: PREINCUBATION); “inactive; negative” (Test System: AMES SALMONELLA TYPHIMURIUM, Strain/Indicator: TA1537, Metabolic Activation: RAT, LIVER, S-9, AROCLOR 1254 (30%), Method: PREINCUBATION); “inactive; negative” (Test System: AMES SALMONELLA TYPHIMURIUM, Strain/Indicator: TA1537, Metabolic Activation: RAT, LIVER, S-9, PHENOBARBITAL AND BETA-NAPHTHOFLAVONE, Method: PREINCUBATION). The mutagenic call (Test System: E. COLI, Strain/Indicator: WP2UVRA/PKM101, Metabolic Activation: NONE, Method: PREINCUBATION) was “inactive; negative”; the mutagenic call (Test System: E. COLI, Strain/Indicator: WP2UVRA/PKM101, Metabolic Activation: RAT, LIVER, S-9, PHENOBARBITAL AND BETA-NAPHTHOFLAVONE, Method: PREINCUBATION) is “inactive; negative”; the mutagenic call (Test System: E. COLI, Strain/Indicator: WP2UVRA, Metabolic Activation: NONE, Method: PREINCUBATION) is “inactive; negative”; the mutagenic call (Test System: E. COLI, Strain/Indicator: WP2UVRA, Metabolic Activation: RAT, LIVER, S-9, PHENOBARBITAL AND BETA-NAPHTHOFLAVONE, Method: PREINCUBATION) was “inactive; negative”; the mutagenic call (Test System: Mouse lymphoma, Strain/Indicator: L5178Y (tk+/tk-)/Trifluorothymidine, Metabolic Activation: None, Method: Microtiter) is “active; positive”.
Regarding `COc1ccc2c(c1)-c1nn(CCCN(C)C)c3ccc([N+](=O)[O-])c(c13)N2`, the mutagenic call (Test System: Mouse lymphoma, Strain/Indicator: L5178Y (tk+/tk-), Metabolic Activation: None, Method: Suspension/plate) was “active; positive” and the mutagenic call (Test System: Mouse lymphoma, Strain/Indicator: L5178Y (tk+/tk-), Metabolic Activation: Rat, Liver, S-9, Aroclor 1254, Method: Suspension/plate) is “active; positive”.
